Measured values from patent US5830911A, “Pyranoindole and tetrahydrocarbazole inhibitors of COX-2” (American Home Products Corporation, priority 1997, dated 1998).
Each block holds one compound with its values, some of them ahead of it.

Columns and labels:
rhCOX-2 = biological target: T1, rhCOX-2 (Homo sapiens, UniProt P35354); test: Inhibition of recombinant human COX-2 (PGH2 converted to PGF2α, EIA); assay type: biochemical; details: for IC50: human recombinant COX-2, 30 min preincubation, 37° C.
T1 construct: made in house; microsomal preparation
T1 sequence (P35354 18-604): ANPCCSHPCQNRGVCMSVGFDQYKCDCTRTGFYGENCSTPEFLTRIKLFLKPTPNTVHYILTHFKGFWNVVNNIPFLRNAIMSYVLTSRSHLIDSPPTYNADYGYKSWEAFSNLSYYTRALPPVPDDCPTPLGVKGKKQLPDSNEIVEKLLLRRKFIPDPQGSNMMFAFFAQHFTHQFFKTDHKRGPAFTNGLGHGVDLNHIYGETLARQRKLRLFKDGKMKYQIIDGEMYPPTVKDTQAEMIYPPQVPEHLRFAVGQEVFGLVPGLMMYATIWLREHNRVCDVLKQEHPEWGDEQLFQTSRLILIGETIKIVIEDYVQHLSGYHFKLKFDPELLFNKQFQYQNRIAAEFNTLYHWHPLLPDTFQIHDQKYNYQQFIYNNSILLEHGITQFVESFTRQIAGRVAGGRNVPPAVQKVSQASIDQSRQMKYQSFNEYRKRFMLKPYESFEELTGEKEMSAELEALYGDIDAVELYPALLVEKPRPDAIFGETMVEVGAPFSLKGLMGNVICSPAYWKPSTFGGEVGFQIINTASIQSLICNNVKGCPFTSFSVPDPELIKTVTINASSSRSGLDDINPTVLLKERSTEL
Procedure: (§1) Representative compounds of this invention were evaluated for inhibition of COX-2 and COX-1 enzymes as follows. Human COX-1 and COX-2 cDNAs were cloned from human monocytes, untreated and LPS-treated respectively, by RT-PCR using oligonucleotide primers based on published hCOX-1 and hCOX-2 sequences (Jones et al., J. Biol. Chem., 268, 9049 (1993)). The cDNAs were then transfected into either Sf9 or CHO cells and subsequently converted into a microsomal preparation as described by Glaser et al (Eur. J. Pharmacol. 281, 107-111 (1995)). The microsomal human recombinant enzymes were diluted with buffer (100 mM Tris, pH 7.8 at 37° C.) containing 0.5 mM phenol ([…] total volume). The enzyme preparations were preincubated with vehicle (DMSO) or compounds in DMSO (1 % DMSO in final assay) for 30 min at 37° C. Excess hematin was added 1 min prior to initiation of reaction (1.25 mM final hematin) with 30 mM arachidonic acid (sodium salt). Final assay volume was 1.0 ml (100 mM Tris (pH 7.8), 0.5 mM phenol, 1.25 mM hematin and 30 mM arachidonic acid at 37° C.).
The reaction was incubated for 35 sec (maximum level of PGH2 accumulation as determined from time course studies), and terminated by addition of […] of SnCl2 (1 mg/ml) in 0.1N HCl. PGH2 is quantitatively converted to PGF2a by this reaction (50% efficiency of total conversion). The pH of each tube is adjusted to pH 3.0-3.5 with 0.1N--NaOH and extracted twice with 1.5 ml of ethyl acetate (75-90% efficiency per extraction). Combined ethyl acetate extracts were dried under N2 (g) and redissolved in EIA buffer (2.0 ml), and PGF2α ( was quantified by EIA.

purified ovine COX-1 = biological target: T2, purified ovine COX-1 (Ovis aries, UniProt P05979); test: Inhibition of purified ovine COX-1 (PGH2 converted to PGF2α, EIA); assay type: biochemical; details: for inhibition at 270 µM / inhibition at 30 µM / inhibition at 10 µM / inhibition at 90 µM: read-out: % inh of pur. bovine COX-1
T2 construct: purchased Cayman Chemicals (Ann Arbor, Mich.)
T2 sequence (P05979 25-600): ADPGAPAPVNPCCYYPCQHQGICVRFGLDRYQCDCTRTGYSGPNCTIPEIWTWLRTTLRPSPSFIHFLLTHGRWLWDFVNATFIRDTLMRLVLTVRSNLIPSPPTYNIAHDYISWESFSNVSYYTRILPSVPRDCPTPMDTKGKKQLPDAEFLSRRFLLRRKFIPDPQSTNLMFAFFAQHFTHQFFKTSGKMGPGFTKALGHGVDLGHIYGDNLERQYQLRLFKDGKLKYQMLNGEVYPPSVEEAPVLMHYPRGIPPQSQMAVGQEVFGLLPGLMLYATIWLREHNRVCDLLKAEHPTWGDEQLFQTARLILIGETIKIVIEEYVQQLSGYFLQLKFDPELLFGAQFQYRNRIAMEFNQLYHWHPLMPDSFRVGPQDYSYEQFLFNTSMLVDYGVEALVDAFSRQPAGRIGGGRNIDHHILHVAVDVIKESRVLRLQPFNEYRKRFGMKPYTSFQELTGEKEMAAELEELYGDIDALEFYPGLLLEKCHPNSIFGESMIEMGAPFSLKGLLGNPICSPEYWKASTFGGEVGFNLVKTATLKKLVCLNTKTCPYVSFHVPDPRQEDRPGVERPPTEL
Procedure: [The source words this procedure for another species and reports this species under the same test.] as §1, with “C.). The reaction was incubated for 35 sec (maximum level of PGH2 accumulation as determined from time course studies), and terminated by addition of […] of SnCl2 (1 mg/ml) in 0.1N HCl. PGH2 is quantitatively converted to PGF2a by this reaction (50% efficiency of total conversion). The pH of each tube is adjusted to pH 3.0-3.5 with 0.1N--NaOH and extracted twice with 1.5 ml of ethyl acetate (75-90% efficiency per extraction).” for “C.).”

COX-2 = details: literature; cited from earlier work
[1] = Rogers et al., Neurology 43, 1609-1611 (1993); cited from earlier work
[2] = Futaki et al., Gen. Pharmac. 24, 105-110, 1993; cited from earlier work
[3] = Futaki et al., Gen. Pharmac. 24, 105-110, 1993; cited from earlier work; remark: listed apart in the source

inhibition at 1 µM (rhCOX-2; read-out: % inh of rhCOX-2): 91% | inhibition at 270 µM (purified ovine COX-1): 86%
Compound: C=CCC1(CC(=O)O)CCCc2c1[nH]c1c(C#N)ccc(C#N)c21 (centres unmarked) [Example 11, 1-Allyl-5,8-dicyano-2,3,4,9-tetrahydro-1H-carbazole-1-acetic acid]

IC50 (rhCOX-2): 0.57 µM | inhibition at 30 µM (purified ovine COX-1): 47% | inhibition at 270 µM (purified ovine COX-1): 31%
Compound: CCC1(CC(=O)O)OCCc2c1[nH]c1cccc(C#N)c21 (centres unmarked) [Example 3, 5-Cyano-1-ethyl-1,3,4,9-tetrahydropyrano[3,4-b]indole-1-acetic acid]

IC50 (rhCOX-2): 0.32 µM | inhibition at 10 µM (purified ovine COX-1): 73%
Compound: CCCC1(CC(=O)O)CCCc2c1[nH]c1c(F)ccc(C#N)c21 (centres unmarked) [Example 6, 5-Cyano-8-fluoro-1-propyl-2,3,4,9-tetrahydro-1H-carbazole-1-acetic acid]

IC50 (rhCOX-2): 1 µM
Compound: CCCC1(CC(=O)O)OCCc2c1[nH]c1c(F)ccc(C#N)c21 (centres unmarked) [Example 1, 5-Cyano-8-fluoro-1-propyl-1,3,4,9-tetrahydropyrano[3,4-b]indole-1-acetic acid]

IC50 (rhCOX-2): 0.1 µM | inhibition at 10 µM (purified ovine COX-1): 93%
Compound: C=CCC1(CC(=O)O)CCCc2c1[nH]c1c(F)ccc(C#N)c21 (centres unmarked) [Example 5, 1-Allyl-5-cyano-8-fluoro-2,3,4,9-tetrahydro-1H-carbazole-1-acetic acid]

IC50 (rhCOX-2): 1.7 µM | IC50 (purified ovine COX-1; purified ovine COX-1, 30 min preincubation, 37° C.): > 1000 µM
Compound: CCCC1(CC(=O)O)OCCc2c1[nH]c1cccc(C#N)c21 (centres unmarked) [Example 4, 5-Cyano-1-propyl-1,3,4,9-tetrahydropyrano[3,4-b]indole-1-acetic acid]

inhibition at 3 µM (rhCOX-2; at 3 μM, read-out: % inh of rhCOX-2): 38% | inhibition at 90 µM (purified ovine COX-1): 86%
Compound: CCCC1(CC(=O)O)OCCc2c1[nH]c1c(C)ccc(C#N)c21 (centres unmarked) [Example 2, 5-Cyano-8-methyl-1-propyl-1,3,4,9-tetrahydropyrano[3,4-b]indole-1-acetic acid]

inhibition at 0.3 µM (rhCOX-2; at 0.3 μM, read-out: % inh of rhCOX-2): 75% | inhibition at 30 µM (purified ovine COX-1): 99%
Compound: C=CCC1(CC(=O)O)CCCc2c1[nH]c1c(C)ccc(C#N)c21 (centres unmarked) [Example 7, 1-Allyl-5-cyano-8-methyl-2,3,4,9-tetrahydro-1H-carbazole-1-acetic acid]

inhibition at 0.1 µM (rhCOX-2; read-out: % inh of rhCOX-2): 18% | inhibition at 90 µM (purified ovine COX-1): 74%
Compound: CCCC1(CC(=O)O)CCCc2c1[nH]c1cccc(C#N)c21 (centres unmarked) [Example 10, 5-Cyano-1-propyl-2,3,4,9-tetrahydro-1H-carbazole-1-acetic acid]

Compound: COc1ccc2c(c1)c(CC(=O)O)c(C)n2C(=O)c1ccc(Cl)cc1 [Indomethacin]
selectivity for inhibition of COX-2 (COX-2): relatively non-selective inhibitor of COX-1 and COX-2 | treatment of Alzheimer's disease [1]: useful in the treatment of Alzheimer's disease

inhibition at 0.1 µM (rhCOX-2; read-out: % inh of rhCOX-2): 21% | inhibition at 90 µM (purified ovine COX-1): -37%
Compound: CCCC1(CC(=O)O)CCCc2c1[nH]c1c(C(N)=O)ccc(C#N)c21 (centres unmarked) [Example 9, 8-Carboxamido-5-cyano-1-propyl-2,3,4,9-tetrahydro-1H-carbazole-1-acetic acid]

inhibition at 1 µM (rhCOX-2; read-out: % inh of rhCOX-2): 78% | inhibition at 270 µM (purified ovine COX-1): 98%
Compound: CCCC1(CC(=O)O)CCCc2c1[nH]c1c(C#N)ccc(C#N)c21 (centres unmarked) [Example 12, 5,8-Dicyano-1-propyl-2,3,4,9-tetrahydro-1H-carbazole-1-acetic acid]

inhibition at 0.1 µM (rhCOX-2; read-out: % inh of rhCOX-2): 31% | inhibition at 90 µM (purified ovine COX-1): 100%
Compound: CCCC1(CC(=O)O)CCCc2c1[nH]c1cc(C#N)ccc21 (centres unmarked) [Example 13, 7-Cyano-1-propyl-2,3,4,9-tetrahydro-1H-carbazole-1-acetic acid]

inhibition at 1 µM (rhCOX-2; read-out: % inh of rhCOX-2): 44% | inhibition at 270 µM (purified ovine COX-1): 99%
Compound: CCCC1(CC(=O)O)CCCc2c1[nH]c1c(C)ccc(C#N)c21 (centres unmarked) [Example 8, 5-Cyano-1-propyl-8-methyl-2,3,4,9-tetrahydro-1H-carbazole-1-acetic acid]

Compound: CCc1cccc2c3c([nH]c12)C(CC)(CC(=O)O)OCC3 (centres unmarked) [etodolac]
selectivity for inhibition of COX-2 (COX-2): tenfold

Compound: CS(=O)(=O)Nc1ccc([N+](=O)[O-])cc1OC1CCCCC1 [N-(2-cyclohexyloxy-4-nitrophenyl)methanesulfonamide]
gastric side effects [2]: lacks gastric side effects | selectivity for inhibition of COX-2 (COX-2): selective COX-2 inhibitor | antiinflammatory effect [3]: effective antiinflammatory
